Assays:
Assay in all cases: relative viability (nuclei count vs DMSO), 5 days (fraction); higher = more cells survive
Nelarabine + Palbociclib = compound: COc1nc(N)nc2c1ncn2[C@@H]1O[C@H](CO)[C@@H](O)[C@@H]1O [Nelarabine] + CC(=O)c1c(C)c2cnc(Nc3ccc(N4CCNCC4)cn3)nc2n(C2CCCC2)c1=O [Palbociclib] (partner 0.5 µM)
How it was run: (§1)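 Values are medians from duplicate plates. Each reflects relative viability, defined as the nuclei count of treated wells over that of vehicle wells. Lung cancer cell lines in 1536-well plates were pin-tool dosed one day after seeding with one drug alone or with a fixed anchor-drug dose plus five library-drug doses (not always all listed) in √10 steps, then fixed, stained and imaged at 4× after 5 days.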

Adavosertib + Linsitinib = compound: C=CCn1c(=O)c2cnc(Nc3ccc(N4CCN(C)CC4)cc3)nc2n1-c1cccc(C(C)(C)O)n1 [Adavosertib] + C[C@]1(O)C[C@@H](c2nc(-c3ccc4ccc(-c5ccccc5)nc4c3)c3c(N)nccn32)C1 [Linsitinib] (partner 1 µM)
How it was run: as §1

Adavosertib + Bortezomib = compound: C=CCn1c(=O)c2cnc(Nc3ccc(N4CCN(C)CC4)cc3)nc2n1-c1cccc(C(C)(C)O)n1 [Adavosertib] + CC(C)C[C@H](NC(=O)[C@H](Cc1ccccc1)NC(=O)c1cnccn1)B(O)O [Bortezomib] (partner 0.002 µM)
How it was run: as §1

Nelarabine + Dasatinib = compound: COc1nc(N)nc2c1ncn2[C@@H]1O[C@H](CO)[C@@H](O)[C@@H]1O [Nelarabine] + Cc1nc(Nc2ncc(C(=O)Nc3c(C)cccc3Cl)s2)cc(N2CCN(CCO)CC2)n1 [Dasatinib] (partner 0.075 µM)
How it was run: as §1

Row | Cell Line | relative viability (Nelarabine + Palbociclib; first compound 0.01 µM) | relative viability (Nelarabine + Palbociclib; first compound 0.03162 µM) | relative viability (Nelarabine + Palbociclib; first compound 0.1 µM) | relative viability (Nelarabine + Palbociclib; first compound 0.3162 µM) | relative viability (Nelarabine + Palbociclib; first compound 1 µM) | relative viability (Adavosertib + Linsitinib; first compound 0.01 µM) | relative viability (Adavosertib + Linsitinib; first compound 0.03162 µM) | relative viability (Adavosertib + Linsitinib; first compound 0.1 µM) | relative viability (Adavosertib + Linsitinib; first compound 0.3162 µM) | relative viability (Adavosertib + Bortezomib; first compound 0.01 µM) | relative viability (Adavosertib + Bortezomib; first compound 0.03162 µM) | relative viability (Adavosertib + Bortezomib; first compound 0.1 µM) | relative viability (Adavosertib + Bortezomib; first compound 0.3162 µM) | relative viability (Nelarabine + Dasatinib; first compound 0.01 µM) | relative viability (Nelarabine + Dasatinib; first compound 0.03162 µM) | relative viability (Nelarabine + Dasatinib; first compound 0.1 µM) | relative viability (Nelarabine + Dasatinib; first compound 0.3162 µM) | relative viability (Nelarabine + Dasatinib; first compound 1 µM)
1 | NCI-H647 | 0.423 | 0.396 | 0.501 | 0.457 | 0.458 | 1.12 | 1.04 | 1.28 | 0.454 | 1.01 | 0.748 | 1.11 | 0.642 | 0.152 | 0.252 | 0.136 | 0.183 | 0.261
2 | NCI-H2347 | 0.407 | 0.37 | 0.42 | 0.402 | 0.481 | 0.944 | 0.93 | 1.09 | 0.914 | 0.763 | 0.911 | 0.875 | 0.763 | 0.328 | 0.306 | 0.252 | 0.289 | 0.308
3 | NCI-H1395 | 0.543 | 0.559 | 0.69 | 0.566 | 0.622 | 1.17 | 1.18 | 1.2 | 0.955 |  |  |  |  | 0.418 | 0.39 | 0.413 | 0.408 | 0.408
4 | NCI-H522 | 1.16 | 1.07 | 0.957 | 0.947 | 1.02 |  |  |  |  |  |  |  |  | 0.863 | 0.866 | 1.07 | 0.801 | 0.993
5 | NCI-H2087 | 0.251 | 0.189 | 0.268 | 0.198 | 0.192 | 0.906 | 1.11 | 1.07 | 0.87 | 0.883 | 0.894 | 1.05 | 0.918 | 1.14 | 0.718 | 0.526 | 0.981 | 1.09
6 | EPLC-272H | 0.337 | 0.263 | 0.236 | 0.337 | 0.28 | 1.12 | 1.14 | 0.958 | 0.878 | 0.959 | 0.805 | 0.866 | 0.732 | 0.323 | 0.361 | 0.129 | 0.401 | 0.29
7 | NCI-H838 | 0.267 | 0.244 | 0.226 | 0.242 | 0.253 | 1.01 | 1.05 | 1 | 1.09 | 0.993 | 0.946 | 0.754 | 0.824 | 0.276 | 0.217 | 0.225 | 0.321 | 0.374
8 | NCI-H661 | 0.386 | 0.401 | 0.402 | 0.403 | 0.422 | 0.609 | 0.648 | 0.463 | 0.417 | 0.941 | 0.695 | 0.889 | 0.738 | 1 | 0.913 | 0.953 | 0.934 | 0.853
9 | NCI-H2170 | 0.438 | 0.337 | 0.385 | 0.395 | 0.405 |  |  |  |  |  |  |  |  | 0.61 | 0.608 | 0.491 | 0.697 | 0.614
10 | NCI-H1703 |  |  |  |  |  | 1.05 | 0.822 | 1.01 | 0.414 | 0.461 | 0.366 | 0.464 | 0.18 |  |  |  |  | 
11 | NCI-H1651 | 0.566 | 0.596 | 0.553 | 0.512 | 0.522 | 1.03 | 1.02 | 0.98 | 0.783 | 0.902 | 0.963 | 1 | 0.935 | 0.4 | 0.372 | 0.387 | 0.355 | 0.368
12 | LU99A | 0.48 | 0.34 | 0.429 | 0.43 | 0.399 | 0.575 | 0.656 | 0.499 | 0.417 | 1.34 | 0.998 | 1.09 | 0.827 | 0.522 | 0.506 | 0.36 | 0.51 | 0.797
13 | LK-2 | 1.04 |  | 0.772 | 0.835 | 0.684 | 0.761 | 0.742 | 0.522 | 0.424 |  |  |  |  | 0.337 |  | 0.216 | 0.352 | 0.266
14 | NCI-H1666 | 0.607 | 0.648 | 0.677 | 0.661 | 0.59 | 0.763 | 1.14 | 0.813 | 0.754 | 0.831 | 0.87 | 0.729 | 0.62 | 0.835 | 0.855 | 0.719 | 0.878 | 0.934
15 | H3255 | 0.327 | 0.292 | 0.311 | 0.315 | 0.355 | 0.967 | 1.01 | 0.993 | 0.957 | 0.539 | 0.885 | 0.699 | 0.845 |  | 0.427 | 0.367 | 0.345 | 0.309
16 | SK-MES-1 | 0.3 | 0.327 | 0.305 | 0.316 | 0.354 | 1.03 | 1.02 | 1.1 | 0.835 |  |  |  |  | 0.385 | 0.263 | 0.172 | 0.324 | 0.301
17 | NCI-H2023 | 0.321 | 0.369 | 0.348 | 0.336 | 0.302 | 0.638 | 0.742 | 0.505 | 0.392 | 0.94 | 0.937 | 0.682 | 0.437 | 0.825 | 0.59 | 0.382 | 0.62 | 0.66
